Measured values taken from patent publication US7514562B2, “Urea derivatives and their use as vanilloid receptor antagonists in the treatment of pain” (Glaxo Group Limited, priority 2003, dated 2009).

Target: T1, human VR1 (Homo sapiens, UniProt Q8NER1)
T1 construct: expressed in transfected cells
Assay: FLIPR based calcium assay, antagonism of capsaicin response in 1321N1 cells stably expressing human VR1
Format: cell-based
Settings: transfected astrocytoma 1321N1 cells, 30 min pre-incubation, capsaicin challenge; pKb generated from IC50 using the Cheng-Prusoff equation
Experimental: The plates were then washed 4 times with Tyrode containing 1.5 mM calcium, without probenecid. […] Capsaicin (Sigma) was then added to the cells. Compounds having antagonist activity against the human VR1 were identified by detecting differences in fluorescence when measured after capsaicin addition, compared with no compound buffer controls.

T1 sequence (Q8NER1 whole entry): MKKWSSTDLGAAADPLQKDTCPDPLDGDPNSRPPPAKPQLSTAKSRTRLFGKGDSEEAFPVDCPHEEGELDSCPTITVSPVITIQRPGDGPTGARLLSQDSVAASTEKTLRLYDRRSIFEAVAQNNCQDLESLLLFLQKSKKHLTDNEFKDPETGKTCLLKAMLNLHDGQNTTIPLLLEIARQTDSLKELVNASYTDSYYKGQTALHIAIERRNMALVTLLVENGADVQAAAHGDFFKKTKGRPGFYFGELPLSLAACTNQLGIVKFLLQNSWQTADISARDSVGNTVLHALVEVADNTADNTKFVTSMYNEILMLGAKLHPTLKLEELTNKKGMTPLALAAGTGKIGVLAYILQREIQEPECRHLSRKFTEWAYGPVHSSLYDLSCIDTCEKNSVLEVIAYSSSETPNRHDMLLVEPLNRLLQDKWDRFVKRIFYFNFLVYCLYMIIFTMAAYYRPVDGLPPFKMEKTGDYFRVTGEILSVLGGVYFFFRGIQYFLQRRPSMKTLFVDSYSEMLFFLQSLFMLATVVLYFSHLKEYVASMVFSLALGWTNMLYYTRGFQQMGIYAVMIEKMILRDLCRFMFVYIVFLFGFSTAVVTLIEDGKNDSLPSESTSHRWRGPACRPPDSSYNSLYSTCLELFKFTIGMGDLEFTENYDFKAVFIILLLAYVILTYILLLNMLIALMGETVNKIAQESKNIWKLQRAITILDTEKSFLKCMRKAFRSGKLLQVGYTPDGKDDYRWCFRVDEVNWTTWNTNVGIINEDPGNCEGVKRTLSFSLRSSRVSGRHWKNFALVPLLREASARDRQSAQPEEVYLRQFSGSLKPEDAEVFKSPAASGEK

Cc1cc2c(NC(=O)NC3CN(c4ccc(C(F)(F)F)cn4)C3)cccc2nn1 [Example 16]
Kb: < 100 nM
